# Source: patent publication US9890117B2, “Benzamide compounds and related methods of use” (Northwestern University, priority 2012, dated 2018)
# What was measured:
# SIRT2 = molecular target: T1, SIRT2 (Homo sapiens, UniProt Q8IXJ6); test: Fluor-de-Lys biochemical sirtuin deacetylation assay, SIRT2; conditions: 10 μM
# T1 construct: recombinant active enzymes SIRT1, SIRT2, and the catalytically active fragment of SIRT3
# T1 sequence (Q8IXJ6 1-389): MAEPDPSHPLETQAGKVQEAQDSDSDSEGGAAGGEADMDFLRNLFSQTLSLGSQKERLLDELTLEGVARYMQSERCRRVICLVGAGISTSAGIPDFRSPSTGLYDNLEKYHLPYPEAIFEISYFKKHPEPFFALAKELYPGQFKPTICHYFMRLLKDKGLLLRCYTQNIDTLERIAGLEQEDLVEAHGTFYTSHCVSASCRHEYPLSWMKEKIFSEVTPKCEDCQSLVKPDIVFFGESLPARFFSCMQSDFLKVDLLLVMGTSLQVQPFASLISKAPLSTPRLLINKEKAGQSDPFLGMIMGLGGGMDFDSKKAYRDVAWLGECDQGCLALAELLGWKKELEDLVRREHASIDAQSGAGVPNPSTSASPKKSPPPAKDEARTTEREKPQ
SMILES,inhibition at 10 µM (SIRT2) [%],melting point
"Cc1cc(Cl)ccc1N(C)C(=O)c1cccc(S(=O)(=O)N(C)c2ccc(Br)cc2)c1 [Compound 203l, 3-(N-(4-bromophenyl)-N-methylsulfamoyl)-N-(4-chloro-2-methylphenyl)-N-methylbenzamide]",25,124 to 125 °C
"Cc1cc(F)ccc1N(C)C(=O)c1cccc(S(=O)(=O)N(C)c2ccc(Br)cc2)c1 [Compound 203m, 3-(N-(4-bromophenyl)-N-methylsulfamoyl)-N-(4-fluoro-2-methylphenyl)-N-methylbenzamide]",28,104 to 105 °C
"Cc1cc(Cl)ccc1NC(=O)c1cccc(S(=O)(=O)N(C)c2ccc(Br)cc2)c1 [Compound 203n, 3-(N-(4-bromophenyl)-N-methylsulfamoyl)-N-(4-chloro-2-methylphenyl)benzamide]",18,163 to 164 °C
"Cc1cc(F)ccc1NC(=O)c1cccc(S(=O)(=O)N(C)c2ccc(Br)cc2)c1 [Compound 203o, 3-(N-(4-bromophenyl)-N-methylsulfamoyl)-N-(4-fluoro-2-methylphenyl)benzamide]",14,163 to 165 °C
"CN(c1ccc(Br)cc1)S(=O)(=O)c1cccc(C(=O)Nc2ccc(Cl)cc2F)c1 [Compound 203q, 3-(N-(4-bromophenyl)-N-methylsulfamoyl)-N-(4-chloro-2-fluorophenyl)benzamide]",29,117 to 118 °C
"CN(c1ccc(Br)cc1)S(=O)(=O)c1cccc(C(=O)Nc2ccc(F)cc2F)c1 [Compound 203u, 3-(N-(4-bromophenyl)-N-methylsulfamoyl)-N-(2,4-difluorophenyl)benzamide]",22,119 to 120 °C
"CN(c1ccc(Cl)cc1)S(=O)(=O)c1cccc(C(=O)Nc2ccc(Br)cc2F)c1 [Compound 203w, N-(4-bromo-2-fluorophenyl)-3-(N-(4-chlorophenyl)-N-methylsulfamoyl)benzamide]",31,126 to 127 °C
"CN(c1ccc(Cl)cc1)S(=O)(=O)c1cccc(C(=O)Nc2ccc(Cl)cc2C#N)c1 [Compound 203x, N-(4-chloro-2-cyanophenyl)-3-(N-(4-chlorophenyl)-N-methylsulfamoyl)benzamide]",15,157 to 158 °C
"CN(c1ccc(Cl)cc1)S(=O)(=O)c1cccc(NC(=O)c2ccc(Br)cc2)c1 [Compound 207a, 4-bromo-N-(3-(N-(4-chlorophenyl)-N-methylsulfamoyl)phenyl)benzamide]",28,187 to 189 °C
"CN(c1ccc(S(C)(=O)=O)cc1)S(=O)(=O)c1cccc(NC(=O)c2ccc(Br)cc2)c1 [Compound 207b, 4-bromo-N-(3-(N-methyl-N-(4-(methylsulfonyl)phenyl)sulfamoyl)phenyl)benzamide]",57,216 to 218 °C
"CN(c1ccc(S(C)(=O)=O)cc1)S(=O)(=O)c1cccc(NC(=O)c2ccc([S+](C)[O-])cc2)c1 (centres unmarked) [Compound 207c, N-(3-(N-methyl-N-(4-(methylsulfonyl)phenyl)sulfamoyl)phenyl)-4-(methylsulfinyl)benzamide]",47,184 to 186 °C
"CN(c1ccc(S(C)(=O)=O)cc1)S(=O)(=O)c1cccc(NC(=O)c2ccc(S(C)(=O)=O)cc2)c1 [Compound 207d, N-(3-(N-methyl-N-(4-(methylsulfonyl)phenyl)sulfamoyl)phenyl)-4-(methylsulfonyl)benzamide]",26,213 to 215 °C (dec.)
"CSc1ccc(CSc2cccc(C(=O)Nc3ccc(C#N)cn3)c2)cc1 [Compound 211a, N-(5-cyanopyridin-2-yl)-3-((4-(methylthio)benzyl)thio)benzamide]",63,161 to 162 °C
